Experiments:
Assay type in all cases: cell-based
Conditions in all cases: Table A; BaF3 cells, 3 days
EGFR V3 = biological target: T1, EGFR V3 (Homo sapiens, UniProt P00533, DELINS30-297G); assay: BaF3 cell proliferation assay (CellTiterGlo), EGFR V3
T1 construct: expressed in transfected cells; host or cells: BaF3 (murine pro-B) cells, retroviral transduction with pMXs-IRES-Blasticidin
Description: (§1) Retroviral Production: EGFR mutants were subcloned into pMXs-IRES-Blasticidin (RTV-016, Cell Biolabs, San Diego, CA). Retroviral expression vector retrovirus was produced by transient transfection of HEK 293T cells with the retroviral EGFR mutant expression vector pMXs-IRES-Blasticidin (RTV-016, Cell Biolabs), pCMV-Gag-Pol vector and pCMV-VSV-G-Envelope vector. Briefly, HEK 293T/17 cells were plated in 100 mm collagen coated plate (354450, Corning Life Sciences, Tewksbury, MA) (4×10^5 per plate) and incubated overnight. The next day, retroviral plasmids (3 ng of EGFR mutant, 1.0 ng of pCMV-Gag-Pol and 0.5 ng pCMV-VSV-G) were mixed in 500 n1 of Optimem (31985, Life Technologies). The mixture was incubated at room temperature for 5 min and then added to Optimem containing transfection reagent Lipofectamine (11668, Invitrogen) and incubated for 20 minutes. Mixture was then added dropwise to HEK 293T cells. The next day the medium was replaced with fresh culture medium and retrovirus was harvested @ 24 and 48 hrs.
(§2) Generation of EGFR mutant stable cell lines: BaF3 cells (1.5E5 cells) were infected with 1 ml of viral supernatant supplemented with 8 ng/ml polybrene by centrifuging for 30 min at 1000 rpm. Cells were placed in a 37° C. incubator overnight. Cells were then spun for 5 minutes to pellet the cells. Supernatant was removed and cells re-infected a fresh 1 ml of viral supernatant supplemented with 8 ng/ml polybrene by centrifuging for 30 min at 1000 rpm. Cells were placed in 37° C. incubator overnight. Cells were then maintained in RPMI containing 10% Heat Inactivated FBS, 2% L-glutamine containing 10 ng/ml IL-3. After 48 hours cells were selected for retroviral infection in 10 […] for one week. Blasticidin resistant populations were washed twice in phosphate buffered saline before plating in media lacking IL-3 to select for IL-3 independent growth.
(§3) Assay for cell proliferation: BaF3 cell lines were resuspended at 1.3E5 c/ml in RPMI containing 10% Heat Inactivated FBS, 2% L-glutamine and 1% Pen/Strep and dispensed in triplicate (17.5E4 c/well) into 96 well plates. To determine the effect of drug on cell proliferation, cells incubated for 3 days in the presence of vehicle control or test drug at varying concentrations. Inhibition of cell growth was determined by luminescent quantification of intracellular ATP content using CellTiterGlo (Promega), according to the protocol provided by the manufacturer. Comparison of cell number on day 0 versus 72 hours post drug treatment was used to plot dose-response curves. The number of viable cells was determined and normalized to vehicle-treated controls. Inhibition of proliferation, relative to vehicle-treated controls was expressed as a fraction of 1 and graphed using PRISM® software (Graphpad Software, San Diego, CA). EC50 values were determined with the same application.

HER2 S310F = biological target: T2, HER2 S310F (Homo sapiens, UniProt P04626, S310F); assay: BaF3 cell proliferation assay (CellTiterGlo), HER2 S310F
T2 construct: expressed in transfected cells; host or cells: BaF3 (murine pro-B) cells
T2 sequence (P04626 23-1255 S310F): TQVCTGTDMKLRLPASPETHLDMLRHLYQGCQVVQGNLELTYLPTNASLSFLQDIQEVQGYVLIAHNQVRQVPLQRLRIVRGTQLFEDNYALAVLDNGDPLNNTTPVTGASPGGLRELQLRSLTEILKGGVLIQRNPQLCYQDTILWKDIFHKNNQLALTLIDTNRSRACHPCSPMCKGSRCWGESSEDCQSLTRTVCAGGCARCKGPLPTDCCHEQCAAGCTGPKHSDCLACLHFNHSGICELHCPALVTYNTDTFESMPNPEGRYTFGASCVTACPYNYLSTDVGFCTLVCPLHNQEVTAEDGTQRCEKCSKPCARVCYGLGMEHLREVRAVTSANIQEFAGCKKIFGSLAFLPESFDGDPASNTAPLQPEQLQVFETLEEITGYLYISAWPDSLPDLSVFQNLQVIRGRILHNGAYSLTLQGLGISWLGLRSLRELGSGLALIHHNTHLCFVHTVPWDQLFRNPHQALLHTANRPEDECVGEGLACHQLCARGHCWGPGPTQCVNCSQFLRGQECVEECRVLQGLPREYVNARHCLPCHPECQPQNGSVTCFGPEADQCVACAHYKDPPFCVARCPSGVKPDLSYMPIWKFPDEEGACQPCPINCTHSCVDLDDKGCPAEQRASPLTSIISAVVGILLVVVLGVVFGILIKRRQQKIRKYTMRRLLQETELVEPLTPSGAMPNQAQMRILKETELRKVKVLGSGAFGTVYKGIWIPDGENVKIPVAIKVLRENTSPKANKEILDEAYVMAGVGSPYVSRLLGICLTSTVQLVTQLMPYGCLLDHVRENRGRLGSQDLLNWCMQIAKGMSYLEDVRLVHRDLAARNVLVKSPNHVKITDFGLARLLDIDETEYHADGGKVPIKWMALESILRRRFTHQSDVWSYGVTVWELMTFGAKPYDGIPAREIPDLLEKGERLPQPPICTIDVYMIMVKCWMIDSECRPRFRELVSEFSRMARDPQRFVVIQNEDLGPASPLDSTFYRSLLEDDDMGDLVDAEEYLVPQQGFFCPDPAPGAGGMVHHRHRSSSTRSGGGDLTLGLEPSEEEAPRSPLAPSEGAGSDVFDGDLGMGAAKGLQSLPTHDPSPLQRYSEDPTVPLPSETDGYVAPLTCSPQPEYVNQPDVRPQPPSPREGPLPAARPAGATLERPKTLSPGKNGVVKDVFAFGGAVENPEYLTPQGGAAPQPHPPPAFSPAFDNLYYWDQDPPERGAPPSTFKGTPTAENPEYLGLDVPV

EGFR wt = biological target: T3, EGFR wt (Homo sapiens, UniProt P00533); assay: BaF3 cell proliferation assay (CellTiterGlo), EGFR wt
T3 construct: expressed in transfected cells; host or cells: BaF3 (murine pro-B) cells, retroviral transduction with pMXs-IRES-Blasticidin
T3 sequence (P00533 25-1210): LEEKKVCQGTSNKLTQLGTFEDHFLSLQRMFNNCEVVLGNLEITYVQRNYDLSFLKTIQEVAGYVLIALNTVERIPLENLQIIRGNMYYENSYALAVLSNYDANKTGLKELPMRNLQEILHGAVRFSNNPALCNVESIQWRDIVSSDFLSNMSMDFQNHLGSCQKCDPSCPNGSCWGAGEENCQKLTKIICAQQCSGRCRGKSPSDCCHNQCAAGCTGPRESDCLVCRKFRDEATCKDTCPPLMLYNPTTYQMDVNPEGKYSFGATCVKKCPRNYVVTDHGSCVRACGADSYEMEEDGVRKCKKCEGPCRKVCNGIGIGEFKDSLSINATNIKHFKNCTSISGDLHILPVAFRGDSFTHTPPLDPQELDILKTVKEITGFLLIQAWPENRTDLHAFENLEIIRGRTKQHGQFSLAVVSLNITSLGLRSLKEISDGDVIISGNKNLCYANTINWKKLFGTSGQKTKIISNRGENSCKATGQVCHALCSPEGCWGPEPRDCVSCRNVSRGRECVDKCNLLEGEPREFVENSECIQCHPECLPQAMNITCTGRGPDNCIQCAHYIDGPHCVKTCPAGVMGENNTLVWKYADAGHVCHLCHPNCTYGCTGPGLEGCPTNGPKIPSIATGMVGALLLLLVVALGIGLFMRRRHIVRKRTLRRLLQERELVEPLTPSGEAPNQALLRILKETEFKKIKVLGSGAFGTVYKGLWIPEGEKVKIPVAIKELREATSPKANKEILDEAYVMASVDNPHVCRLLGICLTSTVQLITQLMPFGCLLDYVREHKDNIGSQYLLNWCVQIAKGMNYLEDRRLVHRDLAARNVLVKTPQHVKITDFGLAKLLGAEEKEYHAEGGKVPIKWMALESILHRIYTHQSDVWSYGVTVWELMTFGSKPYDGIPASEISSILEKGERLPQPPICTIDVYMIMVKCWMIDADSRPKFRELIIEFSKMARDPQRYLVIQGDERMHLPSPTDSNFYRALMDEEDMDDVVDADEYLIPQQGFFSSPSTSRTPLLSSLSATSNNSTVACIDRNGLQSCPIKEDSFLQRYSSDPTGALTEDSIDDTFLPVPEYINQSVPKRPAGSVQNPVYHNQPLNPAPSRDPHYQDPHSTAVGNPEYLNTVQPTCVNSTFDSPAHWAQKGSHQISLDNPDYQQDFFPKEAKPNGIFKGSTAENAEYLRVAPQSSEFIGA
Description: as §1, §2, §3

HER2 YVMA = biological target: T4, HER2 YVMA (Homo sapiens, UniProt P04626, INS775YVMA); assay: BaF3 cell proliferation assay (CellTiterGlo), HER2 YVMA
T4 construct: expressed in transfected cells; host or cells: BaF3 (murine pro-B) cells
T4 sequence (P04626 with tags, fused parts or gaps INS775YVMA): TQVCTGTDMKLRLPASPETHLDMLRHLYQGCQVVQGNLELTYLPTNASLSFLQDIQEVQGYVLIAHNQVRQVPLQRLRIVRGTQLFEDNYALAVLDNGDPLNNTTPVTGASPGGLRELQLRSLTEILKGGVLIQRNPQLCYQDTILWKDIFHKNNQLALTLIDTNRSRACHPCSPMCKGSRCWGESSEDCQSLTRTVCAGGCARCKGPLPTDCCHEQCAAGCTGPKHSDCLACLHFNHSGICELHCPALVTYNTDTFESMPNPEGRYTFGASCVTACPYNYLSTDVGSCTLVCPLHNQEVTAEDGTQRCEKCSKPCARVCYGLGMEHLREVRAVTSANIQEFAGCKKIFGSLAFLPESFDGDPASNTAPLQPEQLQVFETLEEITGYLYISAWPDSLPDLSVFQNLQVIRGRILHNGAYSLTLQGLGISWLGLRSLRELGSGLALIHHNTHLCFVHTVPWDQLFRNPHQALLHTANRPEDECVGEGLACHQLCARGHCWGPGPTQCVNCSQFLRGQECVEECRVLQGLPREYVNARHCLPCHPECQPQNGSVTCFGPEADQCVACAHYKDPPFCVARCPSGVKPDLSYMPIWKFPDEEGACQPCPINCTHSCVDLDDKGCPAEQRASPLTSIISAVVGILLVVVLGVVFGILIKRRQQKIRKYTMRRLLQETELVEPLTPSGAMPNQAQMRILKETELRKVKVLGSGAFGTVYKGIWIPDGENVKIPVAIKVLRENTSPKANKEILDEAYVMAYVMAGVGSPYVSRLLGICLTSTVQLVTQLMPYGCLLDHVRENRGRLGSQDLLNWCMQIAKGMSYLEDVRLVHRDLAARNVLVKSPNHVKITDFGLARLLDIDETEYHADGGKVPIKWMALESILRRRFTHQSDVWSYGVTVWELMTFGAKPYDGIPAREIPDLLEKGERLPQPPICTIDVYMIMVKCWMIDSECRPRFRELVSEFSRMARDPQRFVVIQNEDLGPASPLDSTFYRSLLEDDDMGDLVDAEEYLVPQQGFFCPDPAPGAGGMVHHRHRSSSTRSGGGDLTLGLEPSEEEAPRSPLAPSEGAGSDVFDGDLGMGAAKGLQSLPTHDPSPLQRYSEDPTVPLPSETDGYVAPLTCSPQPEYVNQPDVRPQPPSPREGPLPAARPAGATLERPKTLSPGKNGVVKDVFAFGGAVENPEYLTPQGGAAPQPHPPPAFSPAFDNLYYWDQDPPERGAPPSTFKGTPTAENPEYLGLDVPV

T1 sequence (P00533 with tags, fused parts or gaps DELINS30-297G): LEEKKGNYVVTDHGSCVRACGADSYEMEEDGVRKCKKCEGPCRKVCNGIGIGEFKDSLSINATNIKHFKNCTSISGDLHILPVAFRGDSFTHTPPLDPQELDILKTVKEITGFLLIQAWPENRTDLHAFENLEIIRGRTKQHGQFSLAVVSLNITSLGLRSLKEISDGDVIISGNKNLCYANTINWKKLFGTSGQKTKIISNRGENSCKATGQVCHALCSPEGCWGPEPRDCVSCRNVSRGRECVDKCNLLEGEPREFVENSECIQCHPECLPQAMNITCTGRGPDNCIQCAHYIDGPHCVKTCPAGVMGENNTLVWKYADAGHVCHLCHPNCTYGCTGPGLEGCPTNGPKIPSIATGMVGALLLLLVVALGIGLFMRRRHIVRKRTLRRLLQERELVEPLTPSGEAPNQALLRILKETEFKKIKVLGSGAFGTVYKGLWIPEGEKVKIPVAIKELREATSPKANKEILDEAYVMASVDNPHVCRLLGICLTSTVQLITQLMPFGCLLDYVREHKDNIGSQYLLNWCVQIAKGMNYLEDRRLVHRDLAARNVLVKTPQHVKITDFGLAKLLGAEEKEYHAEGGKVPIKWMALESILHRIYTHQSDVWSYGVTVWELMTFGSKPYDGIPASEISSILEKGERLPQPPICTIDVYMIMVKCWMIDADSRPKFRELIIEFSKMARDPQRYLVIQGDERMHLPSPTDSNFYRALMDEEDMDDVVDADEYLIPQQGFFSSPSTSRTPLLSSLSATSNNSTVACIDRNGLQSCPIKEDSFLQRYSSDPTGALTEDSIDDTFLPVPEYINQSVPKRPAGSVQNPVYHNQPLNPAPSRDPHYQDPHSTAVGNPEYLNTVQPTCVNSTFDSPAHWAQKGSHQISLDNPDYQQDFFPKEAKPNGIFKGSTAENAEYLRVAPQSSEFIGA

SMILES: C=CC(=O)Nc1cc2c(Nc3cccc(Cl)c3F)ncnc2cc1C#C[C@@]1(C)CCN(C2COC2)C1 [Compound 59, (R)—N-(4-((3-chloro-2-fluorophenyl)amino)-7-((3-methyl-1-(oxetan-3-yl)pyrrolidin-3-yl)ethynyl)quinazolin-6-yl)acrylamide]
- IC50 (EGFR V3): ≤ 50 nM
- IC50 (HER2 S310F): 100 to 500 nM
- IC50 (EGFR wt): 100 to 500 nM
- IC50 (HER2 YVMA): > 500 nM

SMILES: CNC(=O)Nc1cc2c(Nc3cccc(Cl)c3F)ncnc2cc1C#CC1(C)CCN(C)C1 (stereo not shown) [Compound 57, 1-(4-((3-chloro-2-fluorophenyl)amino)-7-((1,3-dimethylpyrrolidin-3-yl)ethynyl)quinazolin-6-yl)-3-methylurea]
- IC50 (EGFR V3): > 500 nM
- IC50 (HER2 S310F): > 500 nM
- IC50 (EGFR wt): ≤ 50 nM
- IC50 (HER2 YVMA): > 500 nM

SMILES: C=CC(=O)Nc1cc2c(Nc3cccc(Cl)c3F)ncnc2cc1C#CC1(F)CCN(C)C1 (stereo not shown) [Compound 60, N-(4-((3-chloro-2-fluorophenyl)amino)-7-((3-fluoro-1-methylpyrrolidin-3-yl)ethynyl)quinazolin-6-yl)acrylamide]
- IC50 (EGFR V3): ≤ 50 nM
- IC50 (HER2 S310F): 50 to 100 nM
- IC50 (EGFR wt): 100 to 500 nM
- IC50 (HER2 YVMA): 100 to 500 nM

SMILES: CC#CC(=O)Nc1cc2c(Nc3ccc(OCc4ccccn4)c(Cl)c3)ncnc2cc1C#CC1(C)CCN(C)C1 (stereo not shown) [Compound 70, N-(4-((3-chloro-4-(pyridin-2-ylmethoxy)phenyl)amino)-7-((1,3-dimethylpyrrolidin-3-yl)ethynyl)quinazolin-6-yl)but-2-ynamide]
- IC50 (EGFR V3): ≤ 50 nM
- IC50 (HER2 S310F): ≤ 50 nM
- IC50 (EGFR wt): 50 to 100 nM
- IC50 (HER2 YVMA): ≤ 50 nM

SMILES: C=CC(=O)Nc1cc2c(Nc3cccc(Cl)c3F)ncnc2cc1C#CC12CCC(CC1)N2C [Compound 10, N-(4-((3-chloro-2-fluorophenyl)amino)-7-((7-methyl-7-azabicyclo[2.2.1]heptan-1-yl)ethynyl)quinazolin-6-yl)acrylamide]
- IC50 (EGFR V3): ≤ 50 nM
- IC50 (HER2 S310F): 100 to 500 nM
- IC50 (EGFR wt): 100 to 500 nM
- IC50 (HER2 YVMA): > 500 nM

SMILES: C=CC(=O)Nc1cc2c(Nc3cccc(Cl)c3F)ncnc2cc1C#CC12CCN(CC1)CC2 [Compound 17, N-(4-((3-chloro-2-fluorophenyl)amino)-7-(quinuclidin-4-ylethynyl)-quinazolin-6-yl)acrylamide]
- IC50 (EGFR V3): ≤ 50 nM
- IC50 (HER2 S310F): 100 to 500 nM
- IC50 (EGFR wt): ≤ 50 nM
- IC50 (HER2 YVMA): 100 to 500 nM

SMILES: C=CC(=O)Nc1cc2c(Nc3cc(Cl)ccc3F)ncnc2cc1C#C[C@@H]1[C@H]2CN(C)C[C@@H]12 [Compound 75, N-(4-((5-chloro-2-fluorophenyl)amino)-7-(((1R,5S,6s)-3-methyl-3-azabicyclo[3.1.0]hexan-6-yl)ethynyl)quinazolin-6-yl)acrylamide]
- IC50 (EGFR V3): ≤ 50 nM
- IC50 (HER2 S310F): 100 to 500 nM
- IC50 (EGFR wt): 100 to 500 nM
- IC50 (HER2 YVMA): > 500 nM

SMILES: C=CC(=O)Nc1cc2c(Nc3ccc(OCc4cccc(F)c4)c(Cl)c3)ncnc2cc1C#C[C@@H]1[C@H]2CN(C)C[C@@H]12 [Compound 76, N-(4-((3-chloro-4-((3-fluorobenzyl)oxy)-phenyl)amino)-7-(((1R,5S,6s)-3-methyl-3-azabicyclo[3.1.0]hexan-6-yl)ethynyl)quinazolin-6-yl)acrylamide]
- IC50 (EGFR V3): 100 to 500 nM
- IC50 (HER2 S310F): 50 to 100 nM
- IC50 (EGFR wt): > 500 nM
- IC50 (HER2 YVMA): 100 to 500 nM

SMILES: C=CC(=O)Nc1cc2c(Nc3ccc(OCc4ccccn4)c(Cl)c3)ncnc2cc1C#C[C@H]1[C@H]2CN(C)C[C@@H]12 [Compound 79, N-(4-((3-chloro-4-(pyridin-2-ylmethoxy)phenyl)amino)-7-(((1R,5S,6r)-3-methyl-3-azabicyclo[3.1.0]hexan-6-yl)ethynyl)quinazolin-6-yl)acrylamide]
- IC50 (EGFR V3): > 500 nM
- IC50 (HER2 S310F): > 500 nM
- IC50 (EGFR wt): > 500 nM
- IC50 (HER2 YVMA): > 500 nM

SMILES: C=C(C)C(=O)Nc1cc2c(Nc3cccc(Cl)c3F)ncnc2cc1C#C[C@@]1(C)CCN(C)C1 [Compound 25, (R)—N-(4-((3-chloro-2-fluorophenyl)amino)-7-((1,3-dimethylpyrrolidin-3-yl)ethynyl)quinazolin-6-yl)methacrylamide]
- IC50 (EGFR V3): > 500 nM
- IC50 (HER2 S310F): > 500 nM
- IC50 (EGFR wt): 100 to 500 nM
- IC50 (HER2 YVMA): > 500 nM

SMILES: C=CC(=O)Nc1cc2c(Nc3ccc(Cl)c(Cl)c3F)ncnc2cc1C#CC1C2COCC12 (stereo not shown) [Compound No. 80, N-(7-(3-oxabicyclo[3.1.0]hexan-6-ylethynyl)-4-((3,4-dichloro-2-fluorophenyl)amino)quinazolin-6-yl)acrylamide]
- IC50 (EGFR V3): ≤ 50 nM
- IC50 (HER2 S310F): 50 to 100 nM
- IC50 (EGFR wt): 50 to 100 nM
- IC50 (HER2 YVMA): 100 to 500 nM

SMILES: C=CC(=O)Nc1cc2c(Nc3cccc(Cl)c3F)ncnc2cc1C#C[C@@]1(C)CCCN(C)C1 [Compound 54, (R)—N-(4-((3-chloro-2-fluorophenyl)amino)-7-((1,3-dimethylpiperidin-3-yl)ethynyl)quinazolin-6-yl)acrylamide]
- IC50 (EGFR V3): 50 to 100 nM
- IC50 (HER2 S310F): 100 to 500 nM
- IC50 (EGFR wt): > 500 nM
- IC50 (HER2 YVMA): > 500 nM

SMILES: CC#CC(=O)Nc1cc2c(Nc3cccc(Cl)c3F)ncnc2cc1C#C[C@@H]1[C@H]2CN(C)C[C@@H]12 [Compound 74, N-(4-((3-chloro-2-fluorophenyl)amino)-7-(((1R,5S,6s)-3-methyl-3-azabicyclo[3.1.0]hexan-6-yl)ethynyl)quinazolin-6-yl)but-2-ynamide]
- IC50 (EGFR V3): ≤ 50 nM
- IC50 (HER2 S310F): 50 to 100 nM
- IC50 (EGFR wt): 100 to 500 nM
- IC50 (HER2 YVMA): > 500 nM

SMILES: C=CC(=O)Nc1cc2c(Nc3ccc(O)c(Cl)c3)ncnc2cc1C#C[C@@H]1[C@H]2CN(C)C[C@@H]12 [Compound 73, N-(4-((3-chloro-4-hydroxyphenyl)amino)-7-(((1R,5S,6s)-3-methyl-3-azabicyclo[3.1.0]hexan-6-yl)ethynyl)quinazolin-6-yl)acrylamide]
- IC50 (EGFR V3): ≤ 50 nM
- IC50 (HER2 S310F): ≤ 50 nM
- IC50 (EGFR wt): 50 to 100 nM
- IC50 (HER2 YVMA): 100 to 500 nM

SMILES: C=CC(=O)Nc1cc2c(Nc3ccc(OCc4ccccn4)c(Cl)c3)ncnc2cc1C#CC1(C)CCN(C)CC1 [Compound 72, N-(4-((3-chloro-4-(pyridin-2-ylmethoxy)phenyl)amino)-7-((1,4-dimethylpiperidin-4-yl)ethynyl)quinazolin-6-yl)acrylamide]
- IC50 (EGFR V3): ≤ 50 nM
- IC50 (HER2 S310F): ≤ 50 nM
- IC50 (EGFR wt): > 500 nM
- IC50 (HER2 YVMA): 50 to 100 nM

SMILES: C=CC(=O)Nc1cc2c(Nc3cccc(Cl)c3F)ncnc2cc1C#CC1(C)CCN(C2COC2)C1 (stereo not shown) [Compound 69, N-(4-((3-chloro-2-fluorophenyl)amino)-7-((3-methyl-1-(oxetan-3-yl)pyrrolidin-3-yl)ethynyl)quinazolin-6-yl)acrylamide]
- IC50 (EGFR V3): ≤ 50 nM
- IC50 (HER2 S310F): 100 to 500 nM
- IC50 (EGFR wt): 100 to 500 nM
- IC50 (HER2 YVMA): > 500 nM

SMILES: C=CC(=O)Nc1cc2c(Nc3cccc(Cl)c3F)ncnc2cc1C#CC1(C)CN(C)CC1(F)F (stereo not shown) [Compound 55, N-(4-((3-chloro-2-fluorophenyl)amino)-7-((4,4-difluoro-1,3-dimethylpyrrolidin-3-yl)ethynyl)quinazolin-6-yl)acrylamide]
- IC50 (EGFR V3): 100 to 500 nM
- IC50 (HER2 S310F): 100 to 500 nM
- IC50 (EGFR wt): > 500 nM
- IC50 (HER2 YVMA): > 500 nM

SMILES: C=CC(=O)Nc1cc2c(Nc3cccc(Cl)c3F)ncnc2cc1C#C[C@@]1(F)CCN(C)C1 [Compound 45, N-{4-[(3-chloro-2-fluorophenyl)amino]-7-{2-[(3S)-3-fluoro-1-methylpyrrolidin-3-yl]ethynyl}quinazolin-6-yl}prop-2-enamide]
- IC50 (EGFR V3): ≤ 50 nM
- IC50 (HER2 S310F): 100 to 500 nM
- IC50 (EGFR wt): 100 to 500 nM
- IC50 (HER2 YVMA): > 500 nM

SMILES: C=CC(=O)Nc1cc2c(Nc3cccc(Cl)c3F)ncnc2cc1C#CC1CCN(C)C1 (stereo not shown) [Compound 77, N-(4-((3-chloro-2-fluorophenyl)amino)-7-((1-methylpyrrolidin-3-yl)ethynyl)quinazolin-6-yl)acrylamide]
- IC50 (EGFR V3): ≤ 50 nM
- IC50 (HER2 S310F): ≤ 50 nM
- IC50 (EGFR wt): ≤ 50 nM
- IC50 (HER2 YVMA): 100 to 500 nM

From patent US12435046B2, “Alkynyl quinazoline compounds” (Black Diamond Therapeutics, Inc., priority 2019, dated 2025)
